Assay [1] concerns Staphylococcus aureus. The experiment in a line: Antibacterial activity against Staphylococcus aureus ATCC 49444 after 24 hrs by CLSI protocol based cup-plate agar diffusion method. In kind it is functional.
A further assay deals with Listeria monocytogenes. The experiment in a line: Antibacterial activity against Listeria monocytogenes ATCC 19115 after 24 hrs by CLSI protocol based cup-plate agar diffusion method. In kind it is functional. A general note: A growth-free zone around the sample is the usual read-out of agar diffusion tests.
For assay [2], the system named is Pseudomonas aeruginosa. The experiment in a line: Antibacterial activity against Pseudomonas aeruginosa ATCC 27853 after 24 hrs by CLSI protocol based cup-plate agar diffusion method. In kind it is functional.
The test system of another assay is Salmonella typhimurium. The assay is described as follows: Antibacterial activity against Salmonella typhimurium ATCC 14028 after 24 hrs by CLSI protocol based cup-plate agar diffusion method. Format: functional, Salmonella enterica subsp. enterica serovar Typhimurium. The following applies: Salmonella enterica.
For assay [3], the system named is Staphylococcus aureus. The experiment in a line: Antibacterial activity against Staphylococcus aureus ATCC 25923 by CLSI protocol based microdilution method. Format: functional, organism-based. (Dilution methods test growth across graded concentrations, often in twofold steps.)
Assay [4] deals with Staphylococcus aureus. The assay is described as follows: Antibacterial activity against Staphylococcus aureus ATCC 6538 by CLSI protocol based microdilution method. Format: functional, organism-based.
In assay [5] the test system is Staphylococcus aureus. The experiment in a line: Antibacterial activity against Staphylococcus aureus. In kind it is functional.
Assay [6] has as its system Bacillus subtilis. The experiment in a line: Antibacterial activity against Bacillus subtilis. In kind it is functional.
The test system of assay [7] is Pseudomonas aeruginosa. The assay is described as follows: Antibacterial activity against Pseudomonas aeruginosa. In kind it is functional.
For assay [8], the system named is Staphylococcus aureus. The experiment in a line: Antibacterial activity against Staphylococcus aureus MLS16. In kind it is functional.
The next assay concerns Micrococcus luteus. The experiment in a line: Antibacterial activity against Micrococcus luteus. In kind it is functional.
The next assay relates to Raoultella planticola. The experiment in a line: Antibacterial activity against Klebsiella planticola. In kind it is functional.
For assay [9], the system named is Escherichia coli. The experiment in a line: Antibacterial activity against Escherichia coli. In kind it is functional.
Assay [10] concerns Enterococcus faecalis. The assay is described as follows: Antibacterial activity against Enterococcus faecalis. Format: functional.
Assay [11] deals with Staphylococcus saprophyticus. The experiment in a line: Antibacterial activity against Staphylococcus saprophyticus. Format: functional.
In assay [12] the test system is Enterococcus faecalis. The experiment in a line: Antibiofilm activity against Enterococcus faecalis. In kind it is functional.
The subject of assay [13] is Enterococcus faecalis. The assay is described as follows: Antibacterial activity against Enterococcus faecalis ATCC 19433 by NCCLS protocol based broth microdilution method.
Assay [14] deals with Pseudomonas aeruginosa. The assay is described as follows: Antibacterial activity against Pseudomonas aeruginosa ATCC 15442 by CLSI protocol based cup-plate agar diffusion method. In kind it is functional.
Assay [15] concerns Escherichia coli. The assay is described as follows: Antibacterial activity against Escherichia coli MTCC 40 after 7 days by two-fold serial dilution method. Format: functional. The settings on record: MTCC 40, 168 h, time 7 day.
The test system of assay [16] is Pseudomonas aeruginosa. The experiment in a line: Antibacterial activity against Pseudomonas aeruginosa MTCC 2453 after 7 days by two-fold serial dilution method. Format: functional. The following applies: MTCC 2453, 168 h, time 7 day.
Assay [17] concerns Staphylococcus aureus. The assay is described as follows: Antibacterial activity against Staphylococcus aureus MTCC 121 after 7 days by two-fold serial dilution method. The settings on record: MTCC 121, 168 h, time 7 day. Format: functional.
Assay [18] has as its system Bacillus subtilis. The assay is described as follows: Antibacterial activity against Bacillus subtilis […] after 7 days by two-fold serial dilution method. The settings on record: 168 h, time 7 day. Format: functional.

≈ marks a conversion by molar mass, not a printed value.

A word on the MIC: it is the lowest concentration found to suppress growth. A high value points to a need for much substance. A word on the IC50: it is the midpoint of a concentration-inhibition curve.

With `Cc1nc(-c2ccccc2)sc1-c1nnc(S)n1/N=C\c1ccc(Br)cc1`, the minimum inhibitory concentration (MIC) came to 31.2 µg/mL (≈ 68.4 µM) in the assay with Staphylococcus aureus [1], 1.9 µg/mL (≈ 4.16 µM) with Listeria monocytogenes, 1.9 µg/mL (≈ 4.16 µM) in the assay on Pseudomonas aeruginosa [2] and 62.5 µg/mL (≈ 137 µM) against Salmonella typhimurium.

For the compound `COCCn1cc(-c2nc(-c3cn(C)c4ccccc34)cs2)c2cc(OC)ccc21`, the IC50 amounted to 1.2 µg/mL (≈ 2.87 µM) with Staphylococcus aureus [3] and 11.5 µg/mL (≈ 27.5 µM) with Staphylococcus aureus [4].

Consider `O=c1oc2ccccc2cc1-c1nn(-c2nc3ccccc3s2)cc1/C=N/Nc1nc(-c2ccc(Br)cc2)cs1`, for which the MIC in the assay with Staphylococcus aureus [5] is 7.8 µg/mL (≈ 12.5 µM); in the assay with Bacillus subtilis [6] it was 3.9 µg/mL (≈ 6.23 µM); with Pseudomonas aeruginosa [7], > 125 µg/mL; against Staphylococcus aureus [8], 7.8 µg/mL (≈ 12.5 µM); with Micrococcus luteus, 7.8 µg/mL (≈ 12.5 µM); against Raoultella planticola it was 7.8 µg/mL (≈ 12.5 µM). The same compound yielded an MIC against Escherichia coli [9] of 7.8 µg/mL (≈ 12.5 µM).

Consider `N#Cc1ccc(-c2csc(-c3cccc(-c4csc(-c5ccccc5)n4)c3)n2)cc1`, for which the MIC with Enterococcus faecalis [10] stood at 62 µg/mL (≈ 147 µM); in assay [11] it was 16 µg/mL (≈ 38 µM). In the assay with Enterococcus faecalis [12], this compound gave an MBIC of 0.002 mg/mL.

With `Cc1ccc(-c2csc(N/N=C/c3cn(-c4nc5ccccc5s4)nc3-c3cc4ccccc4oc3=O)n2)cc1`, the MIC is 7.8 µg/mL (≈ 13.9 µM) in the assay with Staphylococcus aureus [5]; 1.9 µg/mL (≈ 3.39 µM) in the assay with Bacillus subtilis [6]; 3.9 µg/mL (≈ 6.96 µM) in the assay with Pseudomonas aeruginosa [7]; 7.8 µg/mL (≈ 13.9 µM) in the assay with Staphylococcus aureus [8]; 3.9 µg/mL (≈ 6.96 µM) with Micrococcus luteus; 3.9 µg/mL (≈ 6.96 µM) with Raoultella planticola. For the same compound, the MIC with Escherichia coli [9] stood at 7.8 µg/mL (≈ 13.9 µM).

For `Cc1nc(-c2ccccc2)sc1-c1nnc(S)n1/N=C\c1ccc([N+](=O)[O-])cc1`, the MIC against Staphylococcus aureus [1] was determined as 62.5 µg/mL (≈ 148 µM); in the assay with Listeria monocytogenes it was 1.9 µg/mL (≈ 4.5 µM); against Pseudomonas aeruginosa [2], 1.9 µg/mL (≈ 4.5 µM); with Salmonella typhimurium, 62.5 µg/mL (≈ 148 µM).

Regarding `Cl.Cl.Nc1ccc2sc(NC(=O)c3sc4cc(N)ccc4c3Cl)nc2c1`, in the assay on Enterococcus faecalis [13], the MIC came to 16 µg/mL.

Compound `c1ccc(-c2nc(-c3cccc(-c4nc(-c5cccc6ccccc56)cs4)c3)cs2)cc1` gave an MIC against Enterococcus faecalis [10] of 16 µg/mL (≈ 35.8 µM). Moreover, the MBIC with Enterococcus faecalis [12] stood at 0.004 mg/mL.

In the case of `O=c1oc2c(Br)cccc2cc1-c1csc(N/N=C/c2cn(-c3nc4ccccc4s3)nc2-c2cc3ccccc3oc2=O)n1`, the MIC in the assay with Staphylococcus aureus [5] worked out at 7.8 µg/mL (≈ 11.2 µM); against Bacillus subtilis [6] it was 3.9 µg/mL (≈ 5.62 µM); in the assay on Pseudomonas aeruginosa [7] it was 7.8 µg/mL (≈ 11.2 µM); against Staphylococcus aureus [8], 7.8 µg/mL (≈ 11.2 µM); against Micrococcus luteus, 7.8 µg/mL (≈ 11.2 µM); in the assay with Raoultella planticola, 7.8 µg/mL (≈ 11.2 µM). The lowest concentration to inhibit growth in the assay with Escherichia coli [9] (MIC) was 7.8 µg/mL (≈ 11.2 µM).

On to `COc1ccc(-c2csc(N/N=C/c3cn(-c4nc5ccccc5s4)nc3-c3cc4ccccc4oc3=O)n2)cc1`, for which the MIC in the assay with Staphylococcus aureus [5], in the assay on Bacillus subtilis [6], against Pseudomonas aeruginosa [7], in the assay on Staphylococcus aureus [8], in the assay on Micrococcus luteus and with Raoultella planticola was 7.8 µg/mL (≈ 13.5 µM) each time. For the same compound, the MIC against Escherichia coli [9] was found to be 7.8 µg/mL (≈ 13.5 µM).

For the compound `COCCn1cc(-c2csc(-c3cn(C(=O)OC(C)(C)C)c4ccccc34)n2)c2ccccc21`, the IC50 in the assay with Staphylococcus aureus [3] was 1.8 µg/mL (≈ 3.8 µM); in the assay on Staphylococcus aureus [4] it was 6.9 µg/mL (≈ 14.6 µM).

In the case of `COCCn1cc(-c2csc(-c3cn(CCOC)c4ccc(Br)cc34)n2)c2ccccc21`, the IC50 in the assay on Staphylococcus aureus [3] worked out at 2.9 µg/mL (≈ 5.68 µM); in the assay on Staphylococcus aureus [4], 18.8 µg/mL (≈ 36.8 µM).

For `Cc1nc(-c2ccccc2)sc1-c1nnc(S)n1/N=C\c1cccs1`, the MIC against Staphylococcus aureus [1] worked out at 15.6 µg/mL (≈ 40.7 µM); against Listeria monocytogenes it was 1.9 µg/mL (≈ 4.95 µM); against Pseudomonas aeruginosa [2] it was 1.9 µg/mL (≈ 4.95 µM); in the assay on Salmonella typhimurium, 62.5 µg/mL (≈ 163 µM).

In the case of `COc1cccc(/C=N\n2c(S)nnc2-c2sc(-c3ccccc3)nc2C)c1`, the MIC was 31.2 µg/mL (≈ 76.6 µM) with Staphylococcus aureus [1], 1.9 µg/mL (≈ 4.66 µM) against Listeria monocytogenes, 1.9 µg/mL (≈ 4.66 µM) against Pseudomonas aeruginosa [2] and 31.2 µg/mL (≈ 76.6 µM) against Salmonella typhimurium.

Consider `Cc1nc(-c2ccccc2)sc1-c1nnc(S)n1/N=C\c1ccc(F)cc1`, for which the MIC was found to be 31.2 µg/mL (≈ 78.9 µM) in the assay with Staphylococcus aureus [1], 1.9 µg/mL (≈ 4.8 µM) against Listeria monocytogenes, 1.9 µg/mL (≈ 4.8 µM) in the assay with Pseudomonas aeruginosa [2] and 62.5 µg/mL (≈ 158 µM) in the assay on Salmonella typhimurium.

As to `Cc1sc(-c2cccc(-c3csc(-c4ccccc4)n3)c2)nc1-c1ccccc1`, the values for the MIC (in the assay with Enterococcus faecalis [10]; in assay [11]) were 250 µg/mL (≈ 609 µM) and > 1000 µg/mL, respectively. The MBIC in the assay on Enterococcus faecalis [12] worked out at 0.004 mg/mL.

Take `Clc1ccc(-c2csc(-c3cccc(-c4csc(-c5ccccc5)n4)c3)n2)cc1`: the MIC came out at 32 µg/mL (≈ 74.2 µM) in the assay on Enterococcus faecalis [10] and 2 µg/mL (≈ 4.64 µM) in [11]. The compound further showed an MBIC with Enterococcus faecalis [12] of 0.016 mg/mL.

Consider `COCCn1cc(-c2nc(-c3cn(C)c4ccccc34)cs2)c2cc(Br)ccc21`, for which the IC50 with Staphylococcus aureus [3] is 0.95 µg/mL (≈ 2.04 µM); in the assay on Staphylococcus aureus [4], 11.2 µg/mL (≈ 24 µM). This compound also had a minimum inhibitory concentration (MIC) with Pseudomonas aeruginosa [14] of 19.1 µg/mL (≈ 41 µM).

For `COc1ccc(-c2csc(-c3cccc(-c4csc(-c5ccccc5)n4)c3)n2)cc1`, the MIC is 62 µg/mL (≈ 145 µM) with Enterococcus faecalis [10] and 125 µg/mL (≈ 293 µM) in assay [11]. This compound also displayed an MBIC with Enterococcus faecalis [12] of 0.004 mg/mL.

For the compound `O=C(NN1C(=O)/C(=C/c2cccc([N+](=O)[O-])c2)SC1c1cccc(F)c1)c1ccc(-c2ccccc2)cc1` (stereo not drawn), the MIC in the assay on Escherichia coli [15] was found to be 12.5 µg/mL (≈ 23.8 µM); in the assay on Pseudomonas aeruginosa [16], 3.12 µg/mL (≈ 5.94 µM); against Staphylococcus aureus [17], 6.25 µg/mL (≈ 11.9 µM); against Bacillus subtilis [18], 6.25 µg/mL (≈ 11.9 µM).

In the case of `CC(C)(C)OC(=O)NCCn1cc(-c2nc(-c3c[nH]c4ccccc34)cs2)c2ccccc21`, the figures for the IC50 with Staphylococcus aureus [3] and with Staphylococcus aureus [4] were 3.9 µg/mL (≈ 8.5 µM) and 5.2 µg/mL (≈ 11.3 µM), respectively.

For the origin of these results see ChEMBL document CHEMBL4725221, “Thiazoles, Their Benzofused Systems, and Thiazolidinone Derivatives: Versatile and Promising Tools to Combat Antibiotic Resistance” (J Med Chem, 2020).
